In US7109193B2, “Tricyclic diazepines tocolytic oxytocin receptor antagonists” (Wyeth, priority 2001, dated 2006):

Target: T1, human vasopressin V2 receptor subtype (Homo sapiens, UniProt P30518)
T1 construct: host or cells: CHO cells (pZeoSV vector)
Assay: Vasopressin binding in Chinese Hamster Ovary cell membranes expressing human vasopressin V2 subtype receptors
Settings: 100 nM, CHO cell membranes, [3H]arginine vasopressin, values without parentheses
Outline: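 Radioligand displacement on membranes from CHO cells stably expressing human V2 receptor, 25 to 50 μg protein/well, in 50 mM Tris-HCl pH 7.4 with MgCl2, BSA and protease inhibitors. [^3H]arginine vasopressin (8 nM working solution) incubated 60 min at room temperature; bound label measured by filtration and scintillation counting.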

T1 sequence (P30518 whole entry): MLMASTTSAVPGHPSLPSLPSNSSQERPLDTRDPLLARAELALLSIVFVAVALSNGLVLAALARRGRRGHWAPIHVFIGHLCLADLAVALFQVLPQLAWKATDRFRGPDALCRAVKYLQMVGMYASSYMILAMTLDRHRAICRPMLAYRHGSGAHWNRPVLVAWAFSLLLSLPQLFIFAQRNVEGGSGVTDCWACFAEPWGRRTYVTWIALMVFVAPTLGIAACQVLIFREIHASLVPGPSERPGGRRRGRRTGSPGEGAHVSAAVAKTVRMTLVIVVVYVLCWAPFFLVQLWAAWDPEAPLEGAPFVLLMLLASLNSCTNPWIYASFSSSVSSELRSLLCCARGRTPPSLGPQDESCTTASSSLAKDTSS

**Q.** `COc1cccc(-c2ccc(C(=O)N3Cc4ccc(C(=O)N5CCN(CCN(C)C)CC5)n4Cc4ccccc43)cc2C)c1` [Example 199, {4-[2-(Dimethylamino)ethyl]-1-piperazinyl{}10-[(3′-methoxy-2-methyl[1,1′-biphenyl]-4-yl)carbonyl]-10,11-dihydro-5H-pyrrolo[2,1-c][1,4]benzodiazepin-3-yl}methanone] was tested. Which “V2 % inhibition @ 100 nM” value did it give?
**A.** The value was 6%.

**Q.** How did the “V2 % inhibition @ 100 nM” value turn out when `COc1cccc(-c2cc(OC)c(C(=O)N3Cc4ccc(C(=O)N5CCN(CCN6CCOCC6)CC5)n4Cc4ccccc43)cc2Cl)c1` [Example 212, {10-[(6-Chloro-3,3′-dimethoxy[1,1′-biphenyl]-4-yl)carbonyl]-10,11-dihydro-5H-pyrrolo[2,1-c][1,4]benzodiazepin-3-yl}{4-[2-(4-morpholinyl)ethyl]-1-piperazinyi}methanone] was run?
**A.** Its value is 43%.

**Q.** `COc1ccccc1-c1ccc(C(=O)N2Cc3ccc(C(=O)N4CCC[C@H]4CN4CCCC4)n3Cc3ccccc32)cc1C` [Example 259, {10-[(2′-Methoxy-2-methyl[1,1′-biphenyl]-4-yl)carbonyl]-10,11-dihydro-5H-pyrrolo[2,1-c][1,4]benzodiazepin-3-yl}[(2S)-2-(1-pyrrolidinylmethyl)pyrrolidinyl]methanone] was tested. Which “V2 % inhibition @ 100 nM” value did it give?
**A.** The value was −3%.

**Q.** `Cc1ccccc1-c1ccc(C(=O)N2Cc3ccc(C(=O)N4CCC[C@H]4CN4CCCC4)n3Cc3ccccc32)cc1C` [Example 260, {10-[(2,2′-Dimethyl[1,1′-biphenyl]-4-yl)carbonyl]-10,11-dihydro-5H-pyrrolo[2,1-c][1,4]benzodiazepin-3-yl}[(2S)-2-(1-pyrrolidinylmethyl)pyrrolidinyl]methanone] was tested. Which “V2 % inhibition @ 100 nM” value did it give?
**A.** The value was 20%.

**Q.** How did the “V2 % inhibition @ 100 nM” value turn out when `O=C(c1ccc(-c2cccc3ccccc23)cc1Cl)N1Cc2ccc(C(=O)N3CCC[C@H]3CN3CCCC3)n2Cc2ccccc21` [Example 261, {10-[2-Chloro-4-(1-naphthyl)benzoyl]-10,11-dihydro-5H-pyrrolo[2,1-c][1,4]benzodiazepin-3-yl}[(2S)-2-(1-pyrrolidinylmethyl)pyrrolidinyl]methanone] was run?
**A.** Its value is 18%.

**Q.** `COc1cc(C(=O)N2Cc3ccc(C(=O)N4CCC[C@H]4CN4CCCC4)n3Cc3ccccc32)ccc1-c1cccc2ccccc12` [Example 262, {10-[3-Methoxy-4-(1-naphthyl)benzoyl]-10,11-dihydro-5H-pyrrolo[2,1-c][1,4]benzodiazepin-3-yl}[(2S)-2-(1-pyrrolidinylmethyl)pyrrolidinyl]methanone] was tested. Which “V2 % inhibition @ 100 nM” value did it give?
**A.** The value was 4%.

**Q.** For `Cc1ccccc1-c1ccc(C(=O)N2Cc3ccc(C(=O)N4CCC[C@H]4CN4CCCC4)n3Cc3ccccc32)cc1` [Example 264, {10-[(2′-Methyl[1,1′-biphenyl]-4-yl)carbonyl]-10,11-dihydro-5H-pyrrolo[2,1-c][1,4]benzodiazepin-3-yl}[(2S)-2-(1-pyrrolidinylmethyl)pyrrolidinyl]methanone], which “V2 % inhibition @ 100 nM” value is on record?
**A.** Its value is 12%.

**Q.** For `COc1ccccc1-c1ccc(C(=O)N2Cc3ccc(C(=O)N4CCC[C@H]4CN4CCCC4)n3Cc3ccccc32)cc1` [Example 265, {10-[(2′-Methoxy[1,1′-biphenyl]-4-yl)carbonyl]-10,11-dihydro-5H-pyrrolo[2,1-c][1,4]benzodiazepin-3-yl}[(2S)-2-(1-pyrrolidinylmethyl)pyrrolidinyl]methanone], which “V2 % inhibition @ 100 nM” value is on record?
**A.** The value was 10%.

**Q.** For `COc1cc(C(=O)N2Cc3ccc(C(=O)N4CCC[C@H]4CN4CCCC4)n3Cc3ccccc32)ccc1-c1ccccc1C` [Example 266, {10-[(2-Methoxy-2′-methyl[1,1′-biphenyl]-4-yl)carbonyl]-10,11-dihydro-5H-pyrrolo[2,1-c][1,4]benzodiazepin-3-yl}[(2S)-2-(1-pyrrolidinylmethyl)pyrrolidinyl]methanone], which “V2 % inhibition @ 100 nM” value is on record?
**A.** Its value is −17%.

**Q.** With `COc1cc(-c2ccccc2C)c(Cl)cc1C(=O)N1Cc2ccc(C(=O)N3CCC[C@H]3CN3CCCC3)n2Cc2ccccc21` [Example 267, {10-[(6-Chloro-3-methoxy-2′-methyl[1,1′-biphenyl]-4-yl)carbonyl]-10,11-dihydro-5H-pyrrolo[2,1-c][1,4]benzodiazepin-3-yl}[(2S)-2-(1-pyrrolidinylmethyl)pyrrolidinyl]methanone] as the compound, how does the “V2 % inhibition @ 100 nM” value read?
**A.** Its value is 24%.

**Q.** How did the “V2 % inhibition @ 100 nM” value turn out when `COc1cccc(-c2cc(OC)c(C(=O)N3Cc4ccc(C(=O)N5CCC[C@H]5CN5CCCC5)n4Cc4ccccc43)cc2Cl)c1` [Example 268, {10-[(6-Chloro-3,3′-dimethoxy[1,1′-biphenyl]-4-yl)carbonyl]-10,11-dihydro-5H-pyrrolo[2,1-c][1,4]benzodiazepin-3-yl}[(2S)-2-(1-pyrrolidinylmethyl)pyrrolidinyl]methanone] was run?
**A.** The value was 34%.

**Q.** Which “V2 % inhibition @ 100 nM” value does the source give for `COc1ccccc1-c1ccc(C(=O)N2Cc3ccc(C(=O)N4CCC[C@H]4CN4CCCC4)n3Cc3ccccc32)cc1OC` [Example 269, {10-[(2,2′-Dimethoxy[1,1′-biphenyl]-4-yl)carbonyl]-10,11-dihydro-5H-pyrrolo[2,1-c][1,4]benzodiazepin-3-yl}[(2S)-2-(1-pyrrolidinylmethyl)pyrrolidinyl]methanone] here?
**A.** The value was −19%.

**Q.** `COc1cccc(-c2ccc(C(=O)N3Cc4ccc(C(=O)N5CCC[C@H]5CN5CCCC5)n4Cc4ccccc43)cc2OC)c1` [Example 270, {10-[(2,3′-Dimethoxy[1,1′-biphenyl]-4-yl)carbonyl]-10,11-dihydro-5H-pyrrolo[2,1-c][1,4]benzodiazepin-3-yl}[(2S)-2-(1-pyrrolidinylmethyl)pyrrolidinyl]methanone] was tested. Which “V2 % inhibition @ 100 nM” value did it give?
**A.** The value was 25%.

**Q.** How did the “V2 % inhibition @ 100 nM” value turn out when `Cc1ccccc1-c1ccc(C(=O)N2Cc3ccc(C(=O)N4CC[C@@H](N(C)C)C4)n3Cc3ccccc32)cc1C` [Example 274, [(3R)-3-(Dimethylamino)pyrrolidinyl]{10-[(2,2′-dimethyl[1,1′-biphenyl]-4-yl)carbonyl]-10,11-dihydro-5H-pyrrolo[2,1-c][1,4]benzodiazepin-3-yl}methanone] was run?
**A.** Its value is 32%.

**Q.** Which “V2 % inhibition @ 100 nM” value does the source give for `COc1cccc(-c2cc(OC)c(C(=O)N3Cc4ccc(C(=O)N5CC[C@@H](N(C)C)C5)n4Cc4ccccc43)cc2Cl)c1` [Example 275, {10-[(6-Chloro-3,3′-dimethoxy[1,1′-biphenyl]-4-yl)carbonyl]-10,11-dihydro-5H-pyrrolo[2,1-c][1,4]benzodiazepin-3-yl}[(3R)-3-(dimethylamino)pyrrolidinyl]methanone] here?
**A.** The value was 21%.

**Q.** For `COc1cc(C(=O)N2Cc3ccc(C(=O)N4CC[C@@H](N(C)C)C4)n3Cc3ccccc32)ccc1-c1cccc2ccccc12` [Example 276, [(3R)-3-(Dimethylamino)pyrrolidinyl]{10-[3-methoxy-4-(1-naphthyl)benzoyl]-10,11-dihydro-5H-pyrrolo[2,1-c][1,4]benzodiazepin-3-yl}methanone], which “V2 % inhibition @ 100 nM” value is on record?
**A.** Its value is −3%.

**Q.** `CN(C)[C@@H]1CCN(C(=O)c2ccc3n2Cc2ccccc2N(C(=O)c2ccc(-c4cccc5ccccc45)cc2Cl)C3)C1` [Example 277, {10-[2-Chloro-4-(1-naphthyl)benzoyl]-10,11-dihydro-5H-pyrrolo[2,1-c][1,4]benzodiazepin-3-yl}[(3R)-3-(dimethylamino)pyrrolidinyl]methanone] was tested. Which “V2 % inhibition @ 100 nM” value did it give?
**A.** Its value is 19%.

**Q.** For `COc1ccccc1-c1ccc(C(=O)N2Cc3ccc(C(=O)N4CC[C@@H](N(C)C)C4)n3Cc3ccccc32)cc1` [Example 279, [(3R)-3-(Dimethylamino)pyrrolidinyl]{10-[(2′-methoxy[1,1′-biphenyl]-4-yl)carbonyl]-10,11-dihydro-5H-pyrrolo[2,1-c][1,4]benzodiazepin-3-yl}methanone], which “V2 % inhibition @ 100 nM” value is on record?
**A.** The value was 17%.

**Q.** For `Cc1ccccc1-c1ccc(C(=O)N2Cc3ccc(C(=O)N4CC[C@@H](N(C)C)C4)n3Cc3ccccc32)cc1` [Example 280, [(3R)-3-(Dimethylamino)pyrrolidinyl]{10-[(2′-methyl[1,1′-biphenyl]-4-yl)carbonyl]-10,11-dihydro-5H-pyrrolo[2,1-c][1,4]benzodiazepin-3-yl}methanone], which “V2 % inhibition @ 100 nM” value is on record?
**A.** The value was 6%.

**Q.** Which “V2 % inhibition @ 100 nM” value does the source give for `COc1cc(C(=O)N2Cc3ccc(C(=O)N4CC[C@@H](N(C)C)C4)n3Cc3ccccc32)ccc1-c1ccccc1C` [Example 281, [(3R)-3-(Dimethylamino)pyrrolidinyl]{10-[(2-methoxy-2′-methyl[1,1′-biphenyl]-4-yl)carbonyl]-10,11-dihydro-5H-pyrrolo[2,1-c][1,4]benzodiazepin-3-yl}methanone] here?
**A.** Its value is −9%.

**Q.** With `COc1ccccc1-c1ccc(C(=O)N2Cc3ccc(C(=O)N4CC[C@@H](N(C)C)C4)n3Cc3ccccc32)cc1OC` [Example 282, {10-[(2,2′-Dimethoxy[1,1′-biphenyl]-4-yl)carbonyl]-10,11-dihydro-5H-pyrrolo[2,1-c][1,4]benzodiazepin-3-yl][(3R)-3-(dimethylamino)pyrrolidinyl]methanone] as the compound, how does the “V2 % inhibition @ 100 nM” value read?
**A.** The value was −17%.

**Q.** For `COc1cccc(-c2ccc(C(=O)N3Cc4ccc(C(=O)N5CC[C@@H](N(C)C)C5)n4Cc4ccccc43)cc2OC)c1` [Example 283, {10-[(2,3′-Dimethoxy[1,1′-biphenyl]-4-yl)carbonyl]-10,11-dihydro-5H-pyrrolo[2,1-c][1,4]benzodiazepin-3-yl}[(3R)-3-(dimethylamino)pyrrolidinyl]methanone], which “V2 % inhibition @ 100 nM” value is on record?
**A.** Its value is 29%.

**Q.** For `COc1cc(C(=O)N2Cc3ccc(C(=O)N(C)CCCN(C)C)n3Cc3ccccc32)ccc1-n1c(C)ccc1C` [Example 310, N-[3-(Dimethylamino)propyl]-10-[4-(2,5-dimethyl-i H-pyrrol-1-yl)-3-methoxybenzoyl]-N-methyl-10,11-dihydro-5H-pyrrolo[2,1-c][1,4]benzodiazepine-3-carboxamide], which “V2 % inhibition @ 100 nM” value is on record?
**A.** The value was 12%.
